Data published in patent EP4596574A1, “GLP-1/GCG/GIP TRIPLE-RECEPTOR AGONIST AND USE THEREOF” (Sunshine Lake Pharma Co., Ltd., priority 2022, dated 2024).
pEC50: −log10 of the molar value.

Legend:
Format in all cases: cell-based
[1] = biological target: T1, GLP-1R (Homo sapiens, UniProt P43220); test: In vitro cell activity, cAMP production in HEK293 cells expressing GLP-1R; settings: HEK293-GLP-1R cells, cAMP; read-out: GLP-1R (EC50)
T1 construct: expressed in transfected cells; host or cells: HEK293 (HEK293-GLP-1R)
Outline: (§1)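 Cells were plated at 4×10^5 cells/mL, and detection reagents (cAMP-d2, anti-cAMP cryptate, 1:1) were incubated 1 h at room temperature in the dark or overnight at 4 °C.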

[2] = biological target: T2, GCGR (Homo sapiens, UniProt P47871); test: In vitro cell activity, cAMP production in HEK293 cells expressing GCGR; settings: HEK293-GCGR cells, cAMP; read-out: GCGR (EC50)
T2 construct: expressed in transfected cells; host or cells: HEK293 (HEK293-GCGR)
Outline: as §1

[3] = biological target: T3, GIPR (Homo sapiens, UniProt P48546); test: In vitro cell activity, cAMP production in HEK293 cells expressing GIPR; settings: HEK293-GIPR cells, cAMP; read-out: GIPR (EC50)
T3 construct: expressed in transfected cells; host or cells: HEK293 (HEK293-GIPR)
T3 sequence (P48546 22-466): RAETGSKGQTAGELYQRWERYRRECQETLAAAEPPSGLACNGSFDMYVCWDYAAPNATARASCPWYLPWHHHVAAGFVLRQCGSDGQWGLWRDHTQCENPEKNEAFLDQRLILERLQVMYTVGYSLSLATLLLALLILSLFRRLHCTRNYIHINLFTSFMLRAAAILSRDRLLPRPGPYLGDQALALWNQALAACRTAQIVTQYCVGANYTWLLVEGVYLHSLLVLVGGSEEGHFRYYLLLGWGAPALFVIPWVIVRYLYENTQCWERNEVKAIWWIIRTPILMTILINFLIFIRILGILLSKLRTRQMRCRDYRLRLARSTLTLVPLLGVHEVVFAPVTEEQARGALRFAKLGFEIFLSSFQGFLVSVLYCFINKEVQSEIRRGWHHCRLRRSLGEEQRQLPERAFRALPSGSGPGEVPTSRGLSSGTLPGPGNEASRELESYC
Outline: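 cAMP accumulation is quantified by homogeneous TR-FRET (cAMP-d2 plus anti-cAMP cryptate) in GIPR-expressing HEK293 cells seeded from a 4×10^5 cells/mL suspension and treated with compound. The signal ratio is plotted against concentration and fitted to a four-parameter curve to give EC50.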

T1 sequence (P43220 24-463, species assumed): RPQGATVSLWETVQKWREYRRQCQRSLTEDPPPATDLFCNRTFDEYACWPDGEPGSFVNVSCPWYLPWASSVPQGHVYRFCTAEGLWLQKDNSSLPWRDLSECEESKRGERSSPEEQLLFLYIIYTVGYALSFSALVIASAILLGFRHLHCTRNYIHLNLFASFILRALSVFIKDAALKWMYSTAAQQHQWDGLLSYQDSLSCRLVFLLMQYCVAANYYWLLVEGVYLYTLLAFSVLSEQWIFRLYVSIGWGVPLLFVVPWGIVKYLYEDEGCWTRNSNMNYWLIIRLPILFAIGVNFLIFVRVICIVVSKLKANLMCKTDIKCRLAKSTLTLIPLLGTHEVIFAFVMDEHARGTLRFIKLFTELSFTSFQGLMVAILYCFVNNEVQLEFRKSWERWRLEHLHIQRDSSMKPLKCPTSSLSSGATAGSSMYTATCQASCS
T2 sequence (P47871 26-477, species assumed): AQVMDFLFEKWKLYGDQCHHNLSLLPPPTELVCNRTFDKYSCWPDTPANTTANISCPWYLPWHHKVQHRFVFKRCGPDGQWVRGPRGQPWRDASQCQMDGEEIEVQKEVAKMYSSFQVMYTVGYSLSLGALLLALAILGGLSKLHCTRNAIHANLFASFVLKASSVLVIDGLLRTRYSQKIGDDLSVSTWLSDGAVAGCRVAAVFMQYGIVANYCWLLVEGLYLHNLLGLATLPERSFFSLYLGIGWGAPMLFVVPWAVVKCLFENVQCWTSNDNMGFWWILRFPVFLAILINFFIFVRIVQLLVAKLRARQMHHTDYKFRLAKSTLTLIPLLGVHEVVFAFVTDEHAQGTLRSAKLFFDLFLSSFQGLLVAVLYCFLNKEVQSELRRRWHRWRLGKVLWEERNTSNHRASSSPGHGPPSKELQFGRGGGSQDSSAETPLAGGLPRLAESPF

SMILES | pEC50 [1] | pEC50 [2] | pEC50 [3]
CC[C@H](C)[C@H](NC(=O)[C@H](CO)NC(=O)[C@H](Cc1ccc(O)cc1)NC(=O)[C@H](CC(=O)O)NC(=O)[C@H](CO)NC(=O)[C@@H](NC(=O)[C@](C)(Cc1ccccc1F)NC(=O)[C@@H](NC(=O)CNC(=O)[C@H](Cc1c[nH]cn1)NC(=O)C(C)(C)NC(=O)[C@@H](N)Cc1ccc(O)cc1)[C@@H](C)O)[C@@H](C)O)C(=O)N[C@@H](CC(C)C)C(=O)N[C@@H](CC(C)C)C(=O)N[C@@H](CC(=O)O)C(=O)N[C@@H](CCC(=O)O)C(=O)N[C@@H](CCCCNC(=O)COCCOCCNC(=O)CC[C@H](NC(=O)CCCCCCCCCCCCCCCCC(=O)O)C(=O)O)C(=O)N[C@@H](CCCNC(=N)N)C(=O)N[C@@H](CCC(N)=O)C(=O)NC(C)(C)C(=O)N[C@@H](CCC(=O)O)C(=O)N[C@@H](Cc1ccccc1)C(=O)N[C@H](C(=O)N[C@@H](CCC(=O)O)C(=O)N[C@@H](Cc1c[nH]c2ccccc12)C(=O)N[C@@H](CC(C)C)C(=O)N[C@@H](CC(C)C)C(=O)N[C@@H](C)C(=O)NCC(=O)NCC(=O)N1CCC[C@H]1C(=O)N[C@@H](CO)C(=O)N[C@@H](CO)C(=O)NCC(=O)N[C@@H](C)C(=O)N1CCC[C@H]1C(=O)N1CCC[C@H]1C(=O)N1CCC[C@H]1C(=O)N[C@@H](CO)C(N)=O)[C@@H](C)CC [HEC-PT109] | 9.85 | 9.15 | 10.28
CC[C@H](C)[C@H](NC(=O)[C@H](CO)NC(=O)[C@H](Cc1ccc(O)cc1)NC(=O)[C@H](CC(=O)O)NC(=O)[C@H](CO)NC(=O)[C@@H](NC(=O)[C@](C)(Cc1ccccc1F)NC(=O)[C@@H](NC(=O)CNC(=O)[C@H](CCC(N)=O)NC(=O)C(C)(C)NC(=O)[C@@H](N)Cc1ccc(O)cc1)[C@@H](C)O)[C@@H](C)O)C(=O)N[C@@H](CC(C)C)C(=O)N[C@@H](CC(C)C)C(=O)N[C@@H](CC(=O)O)C(=O)N[C@@H](CCC(=O)O)C(=O)N[C@@H](CCCCNC(=O)COCCOCCNC(=O)CC[C@H](NC(=O)CCCCCCCCCCCCCCCCC(=O)O)C(=O)O)C(=O)N[C@@H](CCCNC(=N)N)C(=O)N[C@@H](CCC(N)=O)C(=O)NC(C)(C)C(=O)N[C@@H](CCC(=O)O)C(=O)N[C@@H](Cc1ccccc1)C(=O)N[C@H](C(=O)N[C@@H](CCC(=O)O)C(=O)N[C@@H](Cc1c[nH]c2ccccc12)C(=O)N[C@@H](CC(C)C)C(=O)N[C@@H](CC(C)C)C(=O)N[C@@H](C)C(=O)NCC(=O)NCC(=O)N1CCC[C@H]1C(=O)N[C@@H](CO)C(=O)N[C@@H](CO)C(=O)NCC(=O)N[C@@H](C)C(=O)N1CCC[C@H]1C(=O)N1CCC[C@H]1C(=O)N1CCC[C@H]1C(=O)N[C@@H](CO)C(N)=O)[C@@H](C)CC [HEC-PT110] | 9.94 | 8.88 | 10.35
CC[C@H](C)[C@H](NC(=O)[C@H](Cc1ccccc1)NC(=O)[C@H](C)NC(=O)[C@H](CCC(N)=O)NC(=O)[C@H](CCC(N)=O)NC(=O)[C@H](CCCNC(=N)N)NC(=O)[C@H](CCCCNC(=O)COCCOCCNC(=O)CC[C@H](NC(=O)CCCCCCCCCCCCCCCCC(=O)O)C(=O)O)NC(=O)[C@H](CCC(=O)O)NC(=O)[C@H](CC(=O)O)NC(=O)[C@H](CC(C)C)NC(=O)[C@H](CC(C)C)NC(=O)[C@@H](NC(=O)[C@H](CO)NC(=O)[C@H](Cc1ccc(O)cc1)NC(=O)[C@H](CC(=O)O)NC(=O)[C@H](CO)NC(=O)[C@@H](NC(=O)[C@](C)(Cc1ccccc1F)NC(=O)[C@@H](NC(=O)CNC(=O)[C@H](Cc1c[nH]cn1)NC(=O)C(C)(C)NC(=O)[C@@H](N)Cc1ccc(O)cc1)[C@@H](C)O)[C@@H](C)O)[C@@H](C)CC)C(=O)N[C@@H](CCC(=O)O)C(=O)N[C@@H](Cc1ccc(O)cc1)C(=O)N[C@@H](CC(C)C)C(=O)N[C@@H](CC(C)C)C(=O)N[C@@H](CCC(=O)O)C(=O)NCC(=O)NCC(=O)N1CCC[C@H]1C(=O)N[C@@H](CO)C(=O)N[C@@H](CO)C(=O)NCC(=O)N[C@@H](C)C(=O)N1CCC[C@H]1C(=O)N1CCC[C@H]1C(=O)N1CCC[C@H]1C(=O)N[C@@H](CO)C(=O)O [HEC-PT118] | 8.92 | 9.66 | 9.89
CC[C@H](C)[C@H](NC(=O)[C@H](Cc1ccccc1)NC(=O)[C@H](C)NC(=O)[C@H](CCCNC(=N)N)NC(=O)[C@H](CCC(N)=O)NC(=O)[C@H](CCCNC(=N)N)NC(=O)[C@H](CCCCNC(=O)COCCOCCNC(=O)CC[C@H](NC(=O)CCCCCCCCCCCCCCCCC(=O)O)C(=O)O)NC(=O)[C@H](CCC(=O)O)NC(=O)[C@H](CC(=O)O)NC(=O)[C@H](CC(C)C)NC(=O)[C@H](CC(C)C)NC(=O)[C@@H](NC(=O)[C@H](CO)NC(=O)[C@H](Cc1ccc(O)cc1)NC(=O)[C@H](CC(=O)O)NC(=O)[C@H](CO)NC(=O)[C@@H](NC(=O)[C@](C)(Cc1ccccc1F)NC(=O)[C@@H](NC(=O)CNC(=O)[C@H](Cc1c[nH]cn1)NC(=O)C(C)(C)NC(=O)[C@@H](N)Cc1ccc(O)cc1)[C@@H](C)O)[C@@H](C)O)[C@@H](C)CC)C(=O)N[C@@H](CCC(=O)O)C(=O)N[C@@H](Cc1ccc(O)cc1)C(=O)N[C@@H](CC(C)C)C(=O)N[C@@H](CC(C)C)C(=O)N[C@@H](CCC(=O)O)C(=O)NCC(=O)NCC(=O)N1CCC[C@H]1C(=O)N[C@@H](CO)C(=O)N[C@@H](CO)C(=O)NCC(=O)N[C@@H](C)C(=O)N1CCC[C@H]1C(=O)N1CCC[C@H]1C(=O)N1CCC[C@H]1C(=O)N[C@@H](CO)C(=O)O [HEC-PT120] | 9.39 | 9.70 | 9.73
CC[C@H](C)[C@H](NC(=O)[C@H](Cc1ccccc1)NC(=O)[C@H](C)NC(=O)[C@H](CCCCN)NC(=O)[C@H](CCC(N)=O)NC(=O)[C@H](CCCNC(=N)N)NC(=O)[C@H](CCCCNC(=O)COCCOCCNC(=O)CC[C@H](NC(=O)CCCCCCCCCCCCCCCCC(=O)O)C(=O)O)NC(=O)[C@H](CCC(=O)O)NC(=O)[C@H](CC(=O)O)NC(=O)[C@H](CC(C)C)NC(=O)[C@H](CC(C)C)NC(=O)[C@@H](NC(=O)[C@H](CO)NC(=O)[C@H](Cc1ccc(O)cc1)NC(=O)[C@H](CC(=O)O)NC(=O)[C@H](CO)NC(=O)[C@@H](NC(=O)[C@](C)(Cc1ccccc1F)NC(=O)[C@@H](NC(=O)CNC(=O)[C@H](Cc1c[nH]cn1)NC(=O)C(C)(C)NC(=O)[C@@H](N)Cc1ccc(O)cc1)[C@@H](C)O)[C@@H](C)O)[C@@H](C)CC)C(=O)N[C@@H](CCC(=O)O)C(=O)N[C@@H](Cc1ccc(O)cc1)C(=O)N[C@@H](CC(C)C)C(=O)N[C@@H](CC(C)C)C(=O)N[C@@H](C)C(=O)NCC(=O)NCC(=O)N1CCC[C@H]1C(=O)N[C@@H](CO)C(=O)N[C@@H](CO)C(=O)NCC(=O)N[C@@H](C)C(=O)N1CCC[C@H]1C(=O)N1CCC[C@H]1C(=O)N1CCC[C@H]1C(=O)N[C@@H](CO)C(N)=O [HEC-PT121] | 9.56 | 9.05 | 10.09
